Laboratory results reported in US9770026B2, “Substituted pyrimidine compound and uses thereof” (Shenyang Sinochem Agrochemicals R&D Co., Ltd., priority 2012, dated 2017).

Tests used:
rice blast = assay: microbe, parasite or virus in culture; format: cell-based; settings: Pyricularia oryzae; for inhibition at 25 ppm: read-out: inhibition rate against rice blast, 25 ppm, in vitro; for inhibition at 8.3 ppm: read-out: inhibition rate against rice blast, 8.3 ppm, in vitro
Diamond back moth = assay: insecticidal activity against diamond back moth, airbrush spray; format: in vivo; settings: for pest or weed control at 600 µg/mL / pest or weed control at 10 µg/mL / pest or weed control at 100 µg/mL: 72 h; for pest or weed control at 10 µg/mL: 10 mg/L; for pest or weed control at 100 µg/mL: 100 mg/L
How it was run: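 Airbrush leaf-disc spray test: both faces of 2 cm cabbage discs received 0.5 ml of test solution at 0.7 kg/cm^2. Solutions were made in acetone:methanol (1:1) and brought to concentration with 0.1% Tween 80 in water. Ten second-instar larvae per disc, triplicates, were held at 25° C and 60˜70% R.H., with mortality recorded at 72 hrs.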

cucumber gray mold = assay: fungicidal activity in vitro (inhibition rate) against cucumber gray mold; format: cell-based; settings: 25 ppm, in vitro; read-out: inhibition rate against cucumber gray mold
corn rust = assay: protectant activity in vivo against corn rust; settings: Zea mays, 168 h, protectant activity; for pest or weed control at 100 µg/mL: read-out: control effect against corn rust (%), 100 mg/L; for pest or weed control at 400 µg/mL: read-out: control effect against corn rust (%), 400 mg/L; for pest or weed control at 6.25 µg/mL: read-out: control effect against corn rust (%), 6.25 mg/L; for pest or weed control at 25 µg/mL: read-out: control effect against corn rust (%), 25 mg/L
carmine spider mite = assay: bioactivity test against carmine spider mite, airbrush spray; format: in vivo; settings: contrastive test; for pest or weed control at 600 µg/mL / pest or weed control at 10 µg/mL / pest or weed control at 100 µg/mL: Tetranychus cinnabarinus, 72 h, read-out: Insecticidal activity against carmine spider mite (% ); for pest or weed control at 10 µg/mL: 10 mg/L; for pest or weed control at 100 µg/mL: 100 mg/L
How it was run: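 Broadbean seedlings infested with adult mites were sprayed with compound (acetone/methanol stock diluted in 0.1% Tween 80 water) by airbrush at 0.7 kg/cm^2, 0.5 ml. Three replicates were run. Mortality was scored after 72 hrs.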

armyworm = assay: bioactivity test against armyworm, airbrush spray; format: in vivo
[1] = test system: Green peach aphids (Myzus Persicae Sulzer); assay: bioactivity test against green peach aphid, airbrush foliar spray; format: in vivo; settings: contrastive test; for pest or weed control at 2.5 µg/mL: 2.5 mg/L; for pest or weed control at 5 µg/mL: 5 mg/L; for pest or weed control at 10 µg/mL: 10 mg/L; for pest or weed control at 100 µg/mL: 100 mg/L
How it was run: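 Aphids (15-30 per cabbage leaf disc) on moist filter paper were airbrush-sprayed at 10 psi, 0.5 mL, with compound from acetone:methanol (1:1) diluted in water with 0.1% tween 80. Held at 25±1 C, 60±5% RH; survivors counted after 48 hrs to give death rates.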

wheat powdery mildew = assay: protectant activity in vivo against wheat powdery mildew; settings: protectant activity; for pest or weed control at 100 µg/mL: read-out: control effect against wheat powdery mildew (%), 100 mg/L; for pest or weed control at 400 µg/mL: read-out: control effect against wheat powdery mildew (%), 400 mg/L
cucumber downy mildew = assay: protectant activity in vivo against cucumber downy mildew; settings: 400 mg/L; protectant activity
[2] = 72 h, 600 mg/L, read-out: Insecticidal activity against armyworm (%)
[3] = Myzus persicae, foliar, 48 h, read-out: Insecticidal activity against peach aphid (%)
[4] = Myzus persicae, foliar, 48 h, 600 mg/L, read-out: Insecticidal activity against peach aphid (%)

`CC(Cl)c1ncnc(NCCc2ccc(O)cc2)c1Cl` (stereo not drawn) [CK4, reference compound] was tested, and the inhibition at 25 ppm (rice blast) was under 50%, the pest or weed control at 600 µg/mL (Diamond back moth; 600 mg/L) was 0% and the inhibition at 25 ppm (cucumber gray mold) was 0%. It also gave a pest or weed control at 100 µg/mL (corn rust) of 0%, a pest or weed control at 400 µg/mL (corn rust) of 0% and a pest or weed control at 600 µg/mL (carmine spider mite; 600 mg/L) of 75%. For the same molecule, the pest or weed control at 600 µg/mL (armyworm; [2]) was 40%, the pest or weed control at 2.5 µg/mL [1, 3] was 0% and the pest or weed control at 5 µg/mL [1, 3] was 41%. It also gave a pest or weed control at 10 µg/mL [1, 3] of 64%, a pest or weed control at 100 µg/mL [1, 3] of 100% and a pest or weed control at 600 µg/mL [1, 4] of 100%. The pest or weed control at 100 µg/mL (wheat powdery mildew; Triticum aestivum, 168 h) was 0% and the pest or weed control at 400 µg/mL (wheat powdery mildew; Triticum aestivum, 168 h) was 40%.

Work on `CC(Cl)c1ncnc(NCCc2ccc(Oc3ncc(C(F)(F)F)cc3Cl)cc2)c1Cl` (stereo not drawn) [CK21, reference compound] yielded an inhibition at 25 ppm (rice blast) of 0%, a pest or weed control at 10 µg/mL (Diamond back moth) of 10% and a pest or weed control at 100 µg/mL (Diamond back moth) of 25%. For the same molecule, the pest or weed control at 600 µg/mL (Diamond back moth; 600 mg/L) was 80%, the inhibition at 25 ppm (cucumber gray mold) was under 50% and the pest or weed control at 400 µg/mL (corn rust) was 85%. The pest or weed control at 600 µg/mL (carmine spider mite; 600 mg/L) was 0%, the pest or weed control at 600 µg/mL (armyworm; [2]) was 0% and the pest or weed control at 2.5 µg/mL [1, 3] was 0%. It also gave a pest or weed control at 5 µg/mL [1, 3] of 19%, a pest or weed control at 10 µg/mL [1, 3] of 35% and a pest or weed control at 100 µg/mL [1, 3] of 98%. For the same molecule, the pest or weed control at 600 µg/mL [1, 4] was 100% and the pest or weed control at 400 µg/mL (wheat powdery mildew; Triticum aestivum, 168 h) was 0%.

With `Cc1ncnc(NCc2ccc(Oc3ncc(C(F)(F)F)cc3Cl)cc2)c1Cl` [CK32, reference compound] the “control effect against cucumber downy mildew (%)” value (cucumber downy mildew) was 60%, the inhibition at 25 ppm (rice blast) was under 50% and the “Insecticidal activity against diamond back moth (%)” value (Diamond back moth; 600 mg/L) was 0%. The inhibition at 25 ppm (cucumber gray mold) was 0%, the “Insecticidal activity against carmine spider mite (% )” value (carmine spider mite; 600 mg/L) was 91% and the pest or weed control at 10 µg/mL (carmine spider mite) was 0%. The pest or weed control at 100 µg/mL (carmine spider mite) was 22%, the “Insecticidal activity against armyworm (%)” value (armyworm; 600 mg/L) was 0% and the “Insecticidal activity against peach aphid (%)” value ([1]; 600 mg/L) was 0%. For the same molecule, the “control effect against wheat powdery mildew (%)” value (wheat powdery mildew; 400 mg/L) was 0%.

With `CC(Cl)c1ncnc(NCCc2ccc(Oc3ncc(Cl)cc3Cl)cc2)c1Cl` (stereo not drawn) [CK45, reference compound] the inhibition at 25 ppm (rice blast) was 0%, the pest or weed control at 10 µg/mL (Diamond back moth) was 0% and the pest or weed control at 100 µg/mL (Diamond back moth) was 12%. For the same molecule, the pest or weed control at 600 µg/mL (Diamond back moth; 600 mg/L) was 86%, the inhibition at 25 ppm (cucumber gray mold) was under 50% and the pest or weed control at 400 µg/mL (corn rust) was 80%. It also gave a pest or weed control at 600 µg/mL (carmine spider mite; 600 mg/L) of 0%, a pest or weed control at 600 µg/mL (armyworm; [2]) of 0% and a pest or weed control at 1.25 µg/mL ([1]; Myzus persicae, foliar, 48 h, 1.25 mg/L, read-out: Insecticidal activity against peach aphid (%)) of 0%. It also gave a pest or weed control at 2.5 µg/mL [1, 3] of 26%, a pest or weed control at 5 µg/mL [1, 3] of 39% and a pest or weed control at 10 µg/mL [1, 3] of 55%. For the same molecule, the pest or weed control at 100 µg/mL [1, 3] was 98%, the pest or weed control at 600 µg/mL [1, 4] was 100% and the pest or weed control at 400 µg/mL (wheat powdery mildew; Triticum aestivum, 168 h) was 0%.

In the case of `Cc1ncnc(NC(C)c2ccc(Oc3ccc(C(F)(F)F)cc3)cc2)c1Cl` (stereo not drawn) [CK46, reference compound], the inhibition at 8.3 ppm (rice blast) is reported as 0%, the inhibition at 25 ppm (rice blast) is reported as under 50% and the pest or weed control at 10 µg/mL (Diamond back moth) is reported as 0%. It also gave a pest or weed control at 100 µg/mL (Diamond back moth) of 10%, a pest or weed control at 600 µg/mL (Diamond back moth; 600 mg/L) of 100% and an inhibition at 25 ppm (cucumber gray mold) of 0%. It also gave a pest or weed control at 6.25 µg/mL (corn rust) of 0%, a pest or weed control at 25 µg/mL (corn rust) of 0% and a pest or weed control at 100 µg/mL (corn rust) of 0%. It also gave a pest or weed control at 400 µg/mL (corn rust) of 40%, a pest or weed control at 10 µg/mL (carmine spider mite) of 28% and a pest or weed control at 100 µg/mL (carmine spider mite) of 63%. The pest or weed control at 600 µg/mL (carmine spider mite; 600 mg/L) was 100%, the pest or weed control at 10 µg/mL (armyworm; 72 h, 10 mg/L, read-out: Insecticidal activity against armyworm (%)) was 0% and the pest or weed control at 100 µg/mL (armyworm; 72 h, 100 mg/L, read-out: Insecticidal activity against armyworm (%)) was 0%. For the same molecule, the pest or weed control at 600 µg/mL (armyworm; [2]) was 71%, the pest or weed control at 10 µg/mL [1, 3] was 0% and the pest or weed control at 100 µg/mL [1, 3] was 5%. It also gave a pest or weed control at 600 µg/mL [1, 4] of 100%.

`Cc1ncnc(NCc2ccc(Oc3ccc(C(F)(F)F)cc3Cl)cc2)c1Cl` [CK51, reference compound] gave an inhibition at 8.3 ppm (rice blast) of 0%, a pest or weed control at 600 µg/mL (Diamond back moth; 600 mg/L) of 57% and an inhibition at 25 ppm (cucumber gray mold) of 0%. The pest or weed control at 6.25 µg/mL (corn rust) was 0%, the pest or weed control at 25 µg/mL (corn rust) was 0% and the pest or weed control at 100 µg/mL (corn rust) was 20%. It also gave a pest or weed control at 400 µg/mL (corn rust) of 80%, a pest or weed control at 600 µg/mL (armyworm; [2]) of 43% and a pest or weed control at 10 µg/mL [1, 3] of 0%. It also gave a pest or weed control at 100 µg/mL [1, 3] of 50%, a pest or weed control at 600 µg/mL [1, 4] of 100% and a pest or weed control at 6.25 µg/mL (wheat powdery mildew; Triticum aestivum, 168 h, read-out: control effect against wheat powdery mildew (%), 6.25 mg/L) of 0%. For the same molecule, the pest or weed control at 25 µg/mL (wheat powdery mildew; Triticum aestivum, 168 h, read-out: control effect against wheat powdery mildew (%), 25 mg/L) was 40%, the pest or weed control at 100 µg/mL (wheat powdery mildew; Triticum aestivum, 168 h) was 80% and the pest or weed control at 400 µg/mL (wheat powdery mildew; Triticum aestivum, 168 h) was 100%.
